Source: the NIST ThermoML archive (doi:10.1021/je301283e)

Conditions: Liquid, Vibrating tube method

CCCCCCC [heptane]
mass density [kg/m3]
Conditions | 313.15 K | 333.15 K | 353.15 K | 373.15 K | 393.15 K
340 kPa | 667.1 | 649.7 | 631.8 | 613.1 | 593.4
690 kPa | 667.5 | 650.2 | 632.3 | 613.7 | 594.1
1030 kPa | 667.8 | 650.6 | 632.8 | 614.3 | 594.9
1380 kPa | 668.2 | 651 | 633.3 | 614.9 | 595.6
1720 kPa | 668.64 | 651.4 | 633.9 | 615.5 | 596.3
2070 kPa | 669 | 651.9 | 634.4 | 616.1 | 597
2410 kPa | 669.3 | 652.3 | 634.9 | 616.7 | 597.8
2760 kPa | 669.8 | 652.7 | 635.3 | 617.3 | 598.5
3100 kPa | 670.1 | 653.2 | 635.8 | 618.2 | 599.2
3450 kPa | 670.4 | 653.6 | 636.3 | 618.5 | 599.9
3800 kPa | 670.8 | 654 | 636.8 | 619 | 600.5
4140 kPa | 671.2 | 654.4 | 637.3 | 619.6 | 601.2
4480 kPa | 671.6 | 654.8 | 637.7 | 620.2 | 601.9
4830 kPa | 671.9 | 655.2 | 638.2 | 620.7 | 602.5
5170 kPa | 672.2 | 655.6 | 638.7 | 621.2 | 603.2
5510 kPa | 672.6 | 656 | 639.2 | 621.8 | 603.8
5860 kPa | 672.9 | 656.4 | 639.6 | 622.3 | 604.4
6200 kPa | 673.3 | 656.8 | 640.1 | 622.9 | 605.1
6550 kPa | 673.6 | 657.2 | 640.6 | 623.4 | 605.7
6890 kPa | 674 | 657.6 | 641 | 623.9 | 606.3
7240 kPa | 674.3 | 658 | 641.5 | 624.4 | 606.9
7580 kPa | – | 658.4 | 641.9 | 625 | 607.5
7930 kPa | – | 658.8 | 642.3 | 625.5 | 608.1
8270 kPa | – | 659.2 | 642.8 | 626 | 608.7
8620 kPa | – | – | 643.2 | 626.5 | 609.3
8960 kPa | – | – | 643.9 | 627 | 609.9
9310 kPa | – | – | 644.1 | 627.5 | 610.8
9650 kPa | – | – | 644.5 | 628 | 611.1
